Reference: patent US20230271950A1, “ANTIBACTERIAL PICOLINAMIDE COMPOUNDS” (University of Notre Dame Du Lac, priority 2020, published 2023)
Converted amounts (≈) assume the structure as drawn. Like-named read-outs stand apart in the source and are kept apart here.

Tests used:
C. difficile = test: MIC by broth microdilution against C. difficile strains; type: cell-based, Clostridioides difficile; conditions: for MIC: Clostridioides difficile
MRSA (NRS70, NRS119) = test: MIC against MRSA strains; type: cell-based, Staphylococcus aureus; conditions: Staphylococcus aureus
S. aureus ATCC29213 = test: MIC against MSSA; type: cell-based, Staphylococcus aureus; conditions: Staphylococcus aureus; MSSA ATCC 29213; Table 10, unit inferred; read-out: Activity (MIC) against S. aureus
E. faecium NCTC7171 = test: MIC against E. faecium; type: cell-based, Enterococcus faecium; conditions: Enterococcus faecium, NCTC7171; E. faecium NCTC 7171; Table 10, unit inferred; read-out: Activity (MIC) against E. faecium
Bacteroides fragilis = test: MIC against gut bacterium Bacteroides fragilis; type: cell-based; conditions: Bacteroides fragilis, Bacteroides fragilis strain HM-709; Table 7; read-out: MIC
Bifidobacterium longum = test: MIC against gut bacterium Bifidobacterium longum; type: cell-based; conditions: Bifidobacterium longum, Bifidobacterium longum strain HM-846; Table 7; read-out: MIC
Corynebacterium spp. = test: MIC against gut bacterium Corynebacterium spp.; type: cell-based; conditions: Corynebacterium, Corynebacterium spp. strain HM-784; Table 7
Fusobacterium nucleatum = test: MIC against gut bacterium Fusobacterium nucleatum; type: cell-based; conditions: Fusobacterium nucleatum, Fusobacterium nucleatum strain HM-992; Table 7; read-out: MIC
Lactobacillus reuteri = test: MIC against gut bacterium Lactobacillus reuteri; type: cell-based; conditions: Limosilactobacillus reuteri; Lactobacillus reuteri strain HM-102; Table 7; read-out: MIC
Lactobacillus gasseri = test: MIC against gut bacterium Lactobacillus gasseri; type: cell-based; conditions: Lactobacillus gasseri strain HM-644; Table 7; read-out: MIC
Veillonella sp. HM-49 = test: MIC against gut bacterium Veillonella sp.; type: cell-based; conditions: SP.HM49; Veillonella sp. strain HM-49; Table 7; read-out: MIC
Eubacterium sp. = test: MIC against gut bacterium Eubacterium sp.; type: cell-based; conditions: Eubacterium, Eubacterium sp. strain HM-178; Table 7; read-out: MIC
[1] = ATCC43255, ATCC 43255, ribotype 087, Table 3 (SAR^2 and SAR^3), read-out: MIC C. difficile
[2] = ATCC43255, C. difficile ATCC43255, Table 7, read-out: MIC
[3] = ATCC43255, C. difficile ATCC 43255, read-out: MIC against C. difficile
[4] = ATCC43598, C. difficile ATCC43598, Table 7, read-out: MIC
[5] = BAA1801, C. difficile BAA-1801, Table 7, read-out: MIC
[6] = BAA1803, C. difficile BAA-1803, Table 7, read-out: MIC
[7] = BAA1804, C. difficile BAA-1804, Table 7, read-out: MIC
[8] = BAA1812, C. difficile BAA-1812, Table 7, read-out: MIC
[9] = BAA1814, C. difficile BAA-1814, Table 7, read-out: MIC
[10] = BAA1870, C. difficile BAA-1870, Table 7, read-out: MIC
[11] = C. difficile 23691 (VR, vancomycin-resistant), Table 7, read-out: MIC
[12] = C. difficile 23828 (FR, fidaxomicin-resistant), Table 7, read-out: MIC
[13] = C. difficile 24531 (VR, vancomycin-resistant), Table 7, read-out: MIC
[14] = C. difficile 24923 (VR, vancomycin-resistant), Table 7, read-out: MIC
[15] = C. difficile 26675 (MR, metronidazole-resistant), Table 7, read-out: MIC
[16] = C. difficile 27081 (FR, fidaxomicin-resistant), Table 7, read-out: MIC
[17] = C. difficile 27173 (MR, metronidazole-resistant), Table 7, read-out: MIC
[18] = C. difficile NR49292, Table 7, read-out: MIC
[19] = C. difficile NR49294, Table 7, read-out: MIC
[20] = C. difficile NR49302, Table 7, read-out: MIC
[21] = C. difficile NR49305, Table 7, read-out: MIC
[22] = C. difficile NR49310, Table 7, read-out: MIC
[23] = C. difficile NR49318, Table 7, read-out: MIC
[24] = C. difficile, Table 8, read-out: MIC
[25] = MIC MRSA NRS70/MIC C. difficile ATCC43255, Table 7
[26] = MIC MRSA/MIC C. difficile, Table 3
[27] = MRSA NRS70, Table 7, read-out: MIC
[28] = NRS70 strain, Table 3 (SAR^2 and SAR^3), read-out: MIC MRSA

O=C(Nc1ncco1)c1ccnc(-c2ccc(Cl)c(Cl)c2)c1 [Compound 4, 2-(3,4-Dichlorophenyl)-N-(oxazol-2-yl)isonicotinamide]
MIC (C. difficile; ATCC43255, ATCC 43255, ribotype 087, Table 2 (SAR^1), read-out: MIC C. difficile): 0.25 µg/mL (≈ 0.748 µM)
MIC (C. difficile; [1]): 0.25 µg/mL (≈ 0.748 µM)
MIC (C. difficile; [2]): 0.25 µg/mL (≈ 0.748 µM)
MIC (C. difficile; [3]): 0.25 µg/mL (≈ 0.748 µM)
MIC (C. difficile; [4]): 0.0625 µg/mL (≈ 0.187 µM)
MIC (C. difficile; [5]): 0.25 µg/mL (≈ 0.748 µM)
MIC (C. difficile; [6]): 0.5 µg/mL (≈ 1.5 µM)
MIC (C. difficile; [7]): 0.0625 µg/mL (≈ 0.187 µM)
MIC (C. difficile; [8]): 0.125 µg/mL (≈ 0.374 µM)
MIC (C. difficile; [9]): 0.125 µg/mL (≈ 0.374 µM)
MIC (C. difficile; [10]): ≤ 0.25 µg/mL
MIC (C. difficile; [11]): 0.25 µg/mL (≈ 0.748 µM)
MIC (C. difficile; [12]): 0.125 µg/mL (≈ 0.374 µM)
MIC (C. difficile; [13]): 0.125 µg/mL (≈ 0.374 µM)
MIC (C. difficile; [14]): 0.125 µg/mL (≈ 0.374 µM)
MIC (C. difficile; [15]): 0.25 µg/mL (≈ 0.748 µM)
MIC (C. difficile; [16]): 0.125 µg/mL (≈ 0.374 µM)
MIC (C. difficile; [17]): 0.125 µg/mL (≈ 0.374 µM)
MIC (C. difficile; [18]): 0.125 µg/mL (≈ 0.374 µM)
MIC (C. difficile; [19]): 0.0625 µg/mL (≈ 0.187 µM)
MIC (C. difficile; [20]): 0.0625 µg/mL (≈ 0.187 µM)
MIC (C. difficile; [21]): 0.125 µg/mL (≈ 0.374 µM)
MIC (C. difficile; [22]): 0.0625 µg/mL (≈ 0.187 µM)
MIC (C. difficile; [23]): 0.125 µg/mL (≈ 0.374 µM)
MIC (C. difficile; [24]): 0.25 µg/mL (≈ 0.748 µM)
Selectivity (C. difficile; [25]): 1
Selectivity (C. difficile; [26]): 1
Selectivity (C. difficile; Table 8): 1
MIC (MRSA (NRS70, NRS119); [27]): 0.25 µg/mL (≈ 0.748 µM)
MIC (MRSA (NRS70, NRS119); NRS70 strain, Table 2 (SAR^1), read-out: MIC MRSA): 0.25 µg/mL (≈ 0.748 µM)
MIC (MRSA (NRS70, NRS119); [28]): 0.25 µg/mL (≈ 0.748 µM)
MIC (S. aureus ATCC29213): 0.06 µg/mL (≈ 0.18 µM)
MIC (E. faecium NCTC7171): 0.06 µg/mL (≈ 0.18 µM)
MIC (Bacteroides fragilis): 1 µg/mL (≈ 2.99 µM)
MIC (Bifidobacterium longum): > 16 µg/mL
MIC (Corynebacterium spp.): 0.5 µg/mL (≈ 1.5 µM)
MIC (Fusobacterium nucleatum): 8 µg/mL (≈ 23.9 µM)
MIC (Lactobacillus reuteri): 8 µg/mL (≈ 23.9 µM)
MIC (Lactobacillus gasseri): > 16 µg/mL
MIC (Veillonella sp. HM-49): 4 µg/mL (≈ 12 µM)
MIC (Eubacterium sp.): > 16 µg/mL

O=C(Nc1ncco1)c1cc(-c2ccc(Cl)c(Cl)c2)ccn1 [Compound 87, 4-(3,4-Dichlorophenyl)-N-(oxazol-2-yl)picolinamide]
MIC (C. difficile; [1]): 0.125 µg/mL (≈ 0.374 µM)
MIC (C. difficile; [2]): 0.125 µg/mL (≈ 0.374 µM)
MIC (C. difficile; [3]): 0.125 µg/mL (≈ 0.374 µM)
MIC (C. difficile; [4]): 0.25 µg/mL (≈ 0.748 µM)
MIC (C. difficile; [5]): 0.25 µg/mL (≈ 0.748 µM)
MIC (C. difficile; [6]): 0.25 µg/mL (≈ 0.748 µM)
MIC (C. difficile; [7]): 0.125 µg/mL (≈ 0.374 µM)
MIC (C. difficile; [8]): 0.25 µg/mL (≈ 0.748 µM)
MIC (C. difficile; [9]): 0.125 µg/mL (≈ 0.374 µM)
MIC (C. difficile; [10]): 0.25 µg/mL (≈ 0.748 µM)
MIC (C. difficile; [11]): 0.5 µg/mL (≈ 1.5 µM)
MIC (C. difficile; [12]): 0.25 µg/mL (≈ 0.748 µM)
MIC (C. difficile; [13]): 0.25 µg/mL (≈ 0.748 µM)
MIC (C. difficile; [14]): 0.5 µg/mL (≈ 1.5 µM)
MIC (C. difficile; [15]): 0.5 µg/mL (≈ 1.5 µM)
MIC (C. difficile; [16]): 0.5 µg/mL (≈ 1.5 µM)
MIC (C. difficile; [17]): 0.5 µg/mL (≈ 1.5 µM)
MIC (C. difficile; [18]): 0.25 µg/mL (≈ 0.748 µM)
MIC (C. difficile; [19]): 0.25 µg/mL (≈ 0.748 µM)
MIC (C. difficile; [20]): 0.25 µg/mL (≈ 0.748 µM)
MIC (C. difficile; [21]): 0.25 µg/mL (≈ 0.748 µM)
MIC (C. difficile; [22]): 0.125 µg/mL (≈ 0.374 µM)
MIC (C. difficile; [23]): 0.25 µg/mL (≈ 0.748 µM)
MIC (C. difficile; [24]): 0.125 µg/mL (≈ 0.374 µM)
Selectivity (C. difficile; [25]): 1024
Selectivity (C. difficile; [26]): 1024
Selectivity (C. difficile; Table 8): 1024
MIC (MRSA (NRS70, NRS119); [27]): 128 µg/mL (≈ 383 µM)
MIC (MRSA (NRS70, NRS119); MRSA strain NRS70, read-out: MIC against MRSA): 128 µg/mL (≈ 383 µM)
MIC (MRSA (NRS70, NRS119); [28]): 128 µg/mL (≈ 383 µM)
MIC (S. aureus ATCC29213): ≥ 128 µg/mL
MIC (E. faecium NCTC7171): ≥ 128 µg/mL
MIC (Bacteroides fragilis): 4 µg/mL (≈ 12 µM)
MIC (Bifidobacterium longum): > 16 µg/mL
MIC (Corynebacterium spp.): 16 µg/mL (≈ 47.9 µM)
MIC (Fusobacterium nucleatum): 8 µg/mL (≈ 23.9 µM)
MIC (Lactobacillus reuteri): 4 µg/mL (≈ 12 µM)
MIC (Lactobacillus gasseri): > 16 µg/mL
MIC (Veillonella sp. HM-49): 16 µg/mL (≈ 47.9 µM)
MIC (Eubacterium sp.): 8 µg/mL (≈ 23.9 µM)

O=C(Nc1ncco1)c1cc(Oc2cccc(OC(F)(F)F)c2)ccn1 [Compound 108, N-(Oxazol-2-yl)-4-(3-(trifluoromethoxy)phenoxy)picolinamide]
MIC (C. difficile; [2]): 1 µg/mL (≈ 2.74 µM)
MIC (C. difficile; [4]): 0.5 µg/mL (≈ 1.37 µM)
MIC (C. difficile; [5]): 0.25 µg/mL (≈ 0.684 µM)
MIC (C. difficile; [6]): 0.5 µg/mL (≈ 1.37 µM)
MIC (C. difficile; [7]): 0.25 µg/mL (≈ 0.684 µM)
MIC (C. difficile; [8]): 1 µg/mL (≈ 2.74 µM)
MIC (C. difficile; [9]): 0.25 µg/mL (≈ 0.684 µM)
MIC (C. difficile; [10]): 0.5 µg/mL (≈ 1.37 µM)
MIC (C. difficile; [11]): 0.25 µg/mL (≈ 0.684 µM)
MIC (C. difficile; [12]): 1 µg/mL (≈ 2.74 µM)
MIC (C. difficile; [13]): 0.25 µg/mL (≈ 0.684 µM)
MIC (C. difficile; [14]): 0.25 µg/mL (≈ 0.684 µM)
MIC (C. difficile; [15]): 1 µg/mL (≈ 2.74 µM)
MIC (C. difficile; [16]): 0.25 µg/mL (≈ 0.684 µM)
MIC (C. difficile; [17]): 0.5 µg/mL (≈ 1.37 µM)
MIC (C. difficile; [18]): 0.25 µg/mL (≈ 0.684 µM)
MIC (C. difficile; [19]): 0.25 µg/mL (≈ 0.684 µM)
MIC (C. difficile; [20]): 1 µg/mL (≈ 2.74 µM)
MIC (C. difficile; [21]): 0.25 µg/mL (≈ 0.684 µM)
MIC (C. difficile; [22]): 0.5 µg/mL (≈ 1.37 µM)
MIC (C. difficile; [23]): 0.5 µg/mL (≈ 1.37 µM)
MIC (C. difficile; [24]): 1 µg/mL (≈ 2.74 µM)
Selectivity (C. difficile; [25]): 64
Selectivity (C. difficile; Table 8): 64
MIC (MRSA (NRS70, NRS119); [27]): 64 µg/mL (≈ 175 µM)
MIC (S. aureus ATCC29213): 64 µg/mL (≈ 175 µM)
MIC (E. faecium NCTC7171): 64 µg/mL (≈ 175 µM)
MIC (Bacteroides fragilis): 8 µg/mL (≈ 21.9 µM)
MIC (Bifidobacterium longum): 16 µg/mL (≈ 43.8 µM)
MIC (Corynebacterium spp.): > 16 µg/mL
MIC (Fusobacterium nucleatum): 8 µg/mL (≈ 21.9 µM)
MIC (Lactobacillus reuteri): 4 µg/mL (≈ 11 µM)
MIC (Lactobacillus gasseri): > 16 µg/mL
MIC (Veillonella sp. HM-49): 16 µg/mL (≈ 43.8 µM)
MIC (Eubacterium sp.): 8 µg/mL (≈ 21.9 µM)
